This test deals with T1, human BLT1 receptor (Homo sapiens, UniProt Q15722).
T1 construct: expressed in transfected cells; host or cells: HEK293
The experiment in a line: BLT-1 cAMP Assay. As to conditions: HEK293 cells recombinantly expressing human BLT1; antagonist activity vs forskolin 4 μM and LTB4 2 nM; cAMP (CisBio kit). The test is classed as cell-based.

T1 sequence (Q15722 whole entry): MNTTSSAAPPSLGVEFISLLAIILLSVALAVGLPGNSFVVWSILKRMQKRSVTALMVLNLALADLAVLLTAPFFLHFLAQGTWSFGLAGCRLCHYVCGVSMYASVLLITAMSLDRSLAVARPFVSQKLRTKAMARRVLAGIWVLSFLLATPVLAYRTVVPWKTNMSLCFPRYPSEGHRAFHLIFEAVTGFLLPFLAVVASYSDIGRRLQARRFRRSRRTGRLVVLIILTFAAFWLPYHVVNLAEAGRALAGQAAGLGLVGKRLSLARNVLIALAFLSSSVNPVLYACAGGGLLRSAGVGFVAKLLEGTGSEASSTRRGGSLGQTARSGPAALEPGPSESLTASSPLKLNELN

In the case of `O=S(=O)(CC(F)(F)F)Nc1ncc(C(F)(F)F)nc1-c1ccc2c(c1)OC[C@@H](Cc1ccccn1)[C@@H]2O` (single isomer, unassigned) [Example 88, 2,2,2-Trifluoro-N-(3-((3,4-trans)-4-hydroxy-3-(pyridin-2-ylmethyl)chroman-7-yl)-5-(trifluoromethyl)pyrazin-2-yl)ethanesulfonamide], the concentration for a half-maximal effect (EC50) (usually the concentration at which the effect is half-maximal) was found to be 285 nM.

Values taken from patent US12264139B2, “Aryl sulfonamides as BLT1 antagonists” (Merck Sharp & Dohme LLC, priority 2015, dated 2025).
